In assay [1] the target is T1, mGluR5 (Homo sapiens, UniProt P41594).
T1 construct: expressed in transfected cells; host or cells: HEK293
The assay can be described thus: Fluorescence-based Ca2+ mobilization assay. The format is cell-based. Conditions: HEK293 cells overexpressing mGluR5; L-glutamate at EC80. The protocol:
In order to measure the activity on the mGluR5, an experiment was carried out to check the change in the intracellular Ca^2+ level using the HEK293 cell line permanently overexpressing the mGluR5. The cells in the cell culture medium were aliquoted into a 384-well plate coated with poly-D-lysine and cultured in a 37° C. incubator supplied with 5% CO2. The next day, the medium was removed and a dye loading buffer—in which a reagent capable of measuring Ca^2+ was dissolved—was added, and then incubated at 37° C. for 60 minutes. The test compounds were dissolved in 100% DMSO at a final concentration of 10 mM to make a stock solution. The starting concentration of […] was prepared from the stock solution, followed by serial dilutions to prepare working solutions (test compound working solutions). The test compound working solutions were added to the cells that were incubated in the dye loading buffer, which were maintained for 30 minutes at room temperature in a light-shielding state before measurement. The Ca^2+ level change induced by L-glutamate at EC80 concentration was measured for 2 minutes using FLIPR Tetra (MDS Analytical Technologies). The fluorescent Ca^2+ signal values in the presence of the test compounds were normalized to the fluorescent signal elicited by […] concentration of L-glutamate as 100% and that elicited by vehicle as 0% to estimate % inhibition of the test compounds. The efficacy of the test compounds was calculated as IC50 values and represented in Table 1. (+: 1,000-2,000 nM, ++: 500-1,000 nM, +++: 100-500 nM, ++++: less than 100 nM).
Background: Calcium flux is commonly read through the fluorescence of an indicator in the cells.

In assay [2] the target is T2, human 5-HT2AR (Homo sapiens, UniProt P28223).
T2 construct: expressed in transfected cells; host or cells: HEK293
T2 sequence (P28223 whole entry): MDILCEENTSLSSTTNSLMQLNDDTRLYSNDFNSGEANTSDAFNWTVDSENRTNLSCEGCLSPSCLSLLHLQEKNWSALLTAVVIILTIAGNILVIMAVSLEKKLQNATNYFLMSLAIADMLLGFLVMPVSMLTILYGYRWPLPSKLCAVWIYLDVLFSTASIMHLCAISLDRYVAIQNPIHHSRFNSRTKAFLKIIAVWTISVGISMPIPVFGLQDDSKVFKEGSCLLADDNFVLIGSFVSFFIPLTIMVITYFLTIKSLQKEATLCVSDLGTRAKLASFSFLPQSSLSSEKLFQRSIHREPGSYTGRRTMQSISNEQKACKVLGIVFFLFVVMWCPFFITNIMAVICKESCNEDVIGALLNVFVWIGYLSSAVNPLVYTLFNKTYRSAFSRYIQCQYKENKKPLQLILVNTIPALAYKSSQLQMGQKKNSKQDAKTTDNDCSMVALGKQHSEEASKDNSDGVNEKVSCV
The assay can be described thus: HTRF-based IP1 accumulation assay (5-HT2AR antagonistic effect). It counts as cell-based. To be noted: HEK293 cells overexpressing human 5-HT2AR; serotonin at EC80. The method, then: The 5-HT2AR antagonistic effect of the test compounds was confirmed by measuring the production amount of IP1 using the HEK293 cell line permanently overexpressing the human 5-HT2AR. The test compounds were dissolved in 100% DMSO to a final concentration of 10 mM. The starting concentration of 10 μM was prepared from the stock solution, followed by serial dilutions to prepare working solutions in a buffer containing lithium chloride (LiCl). The cells and compounds prepared in the test buffer were placed in a 96-well plate and incubated at room temperature for 10 minutes. Serotonin of EC80 concentration was added, followed by incubation at 37° C. for 30 minutes in a light-shielding state. To measure IP1 accumulation in cells, JP1-d2 acceptor and IP1-Cryptate donor-which are HTRF-based substances for fluorescence signals-were added and incubated for 1 hour at room temperature in a light-shielded state. The fluorescent emission signals of acceptor and donor were detected, and HTRF ratio values were substracted by mean value of serotonin control. The percentage of activation was calculated by normalization of the serotonin control (0%) and IP1 control (100%). The IC50 values of the test compounds are represented in Table 1. (+: 1,000-2,000 nM, ++: 500-1,000 nM, +++: 100-500 nM, ++++: less than 100 nM).

Among the data in patent US12435051B2, “Dual modulator of mGluR5 and 5-HT2A receptor, and use thereof” (Vivozon Inc., priority 2020, dated 2025) are IC50 values, retold here.

T1 sequence (P41594 21-1212): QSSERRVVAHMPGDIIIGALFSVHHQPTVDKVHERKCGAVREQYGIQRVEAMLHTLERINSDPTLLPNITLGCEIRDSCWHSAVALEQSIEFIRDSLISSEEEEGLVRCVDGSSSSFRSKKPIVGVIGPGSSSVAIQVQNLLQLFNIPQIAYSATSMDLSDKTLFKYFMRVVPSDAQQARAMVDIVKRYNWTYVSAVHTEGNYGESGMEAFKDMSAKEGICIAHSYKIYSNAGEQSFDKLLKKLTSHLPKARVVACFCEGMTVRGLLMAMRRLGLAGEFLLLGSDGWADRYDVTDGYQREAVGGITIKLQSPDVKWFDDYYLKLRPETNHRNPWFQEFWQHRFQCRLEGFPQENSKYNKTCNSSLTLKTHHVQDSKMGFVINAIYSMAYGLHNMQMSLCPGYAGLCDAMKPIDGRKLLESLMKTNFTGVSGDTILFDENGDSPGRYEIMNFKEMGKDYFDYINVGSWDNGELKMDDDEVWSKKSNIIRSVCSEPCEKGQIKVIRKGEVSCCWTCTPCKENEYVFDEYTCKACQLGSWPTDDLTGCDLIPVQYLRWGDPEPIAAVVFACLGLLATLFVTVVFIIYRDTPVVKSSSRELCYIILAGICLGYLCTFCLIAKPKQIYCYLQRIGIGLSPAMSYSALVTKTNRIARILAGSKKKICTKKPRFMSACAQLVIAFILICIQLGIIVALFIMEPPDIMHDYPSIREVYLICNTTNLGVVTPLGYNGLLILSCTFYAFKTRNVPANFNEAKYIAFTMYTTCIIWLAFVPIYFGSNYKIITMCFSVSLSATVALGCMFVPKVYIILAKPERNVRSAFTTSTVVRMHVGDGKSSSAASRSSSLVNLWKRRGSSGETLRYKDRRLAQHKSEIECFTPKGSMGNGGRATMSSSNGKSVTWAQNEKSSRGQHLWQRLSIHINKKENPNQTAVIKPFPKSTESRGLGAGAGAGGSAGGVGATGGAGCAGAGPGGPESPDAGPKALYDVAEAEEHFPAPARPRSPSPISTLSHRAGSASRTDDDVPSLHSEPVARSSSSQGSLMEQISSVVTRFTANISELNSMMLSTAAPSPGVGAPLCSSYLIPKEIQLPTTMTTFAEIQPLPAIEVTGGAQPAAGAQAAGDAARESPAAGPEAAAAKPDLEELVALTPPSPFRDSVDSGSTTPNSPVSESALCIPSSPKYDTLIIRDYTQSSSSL

In general, IC50 refers to the concentration that inhibits the measured activity by half. Low values mean higher potency, high ones lower potency. `O=C(NCC1(F)CCOCC1)c1ccc(C#Cc2ccccc2F)cc1` [Example 48, 4-((2-fluorophenyl)ethynyl)-N-((4-fluorotetrahydro-2H-pyran-4-yl)methyl)benzamide]: the IC50 in assay [1] was less than 100 nM; in assay [2] it was 500 to 1000 nM.

Turning to `O=C(NCC1(CF)CCOCC1)c1ccc(C#Cc2ccccc2F)cc1` [Example 50, N-((4-(fluoromethyl)tetrahydro-2H-pyran-4-yl)methyl)-4-((2-fluorophenyl)ethynyl)benzamide], the concentration for half-maximal inhibition (IC50) was less than 100 nM in assay [1] and 500 to 1000 nM in assay [2].

As to `CNC(=O)C1(CNC(=O)c2ccc(C#Cc3ccccc3F)cc2)CCOCC1` [Example 53, 4-((4-((2-fluorophenyl)ethynyl)benzamido)methyl)-N-methyltetrahydro-2H-pyran-4-carboxamide], the half-maximal inhibitory concentration (IC50) in assay [1] fell in the range of 500 to 1000 nM; in assay [2], 1000 to 2000 nM.

Take `O=C(NCC1CCCCO1)c1ccc(C#Cc2ccccc2F)cc1` (centres unmarked) [Example 54, 4-((2-fluorophenyl)ethynyl)-N-((tetrahydro-2H-pyran-2-yl)methyl)benzamide]: the figures for the IC50 in assay [1] and in assay [2] were less than 100 nM and 100 to 500 nM, respectively.

For the compound `O=C(NCC1(O)CCC1)c1ccc(C#Cc2ccccc2F)cc1` [Example 57, 4-((2-fluorophenyl)ethynyl)-N-((1-hydroxycyclobutyl)methyl)benzamide], the results for the IC50 in assay [1] and in assay [2] were less than 100 nM and 500 to 1000 nM, respectively.

As to `COC(=O)CCC1(CNC(=O)c2ccc(C#Cc3ccccc3F)cc2)CCCCC1` [Example 59, methyl 3-(1-((4-((2-fluorophenyl)ethynyl)benzamido)methyl)cyclohexyl)propanoate], the IC50 in assay [1] is 100 to 500 nM; in assay [2] it was 500 to 1000 nM.

Take `O=C(O)CCC1(CNC(=O)c2ccc(C#Cc3ccccc3F)cc2)CCOCC1` [Example 60, 3-(4-((4-((2-fluorophenyl)ethynyl)benzamido)methyl)tetrahydro-2H-pyran-4-yl)propanoic acid]: the IC50 in assay [1] and in assay [2] was 500 to 1000 nM in each case.

With `O=C(O)CCC1(CNC(=O)c2ccc(C#Cc3ccccc3F)cc2)CCCCC1` [Example 61, 3-(1-((4-((2-fluorophenyl)ethynyl)benzamido)methyl)cyclohexyl)propanoic acid], the 50% inhibitory concentration (IC50) in assay [1] fell in the range of 1000 to 2000 nM; in assay [2] it was 500 to 1000 nM.

For the compound `O=C(NCC1(CCCO)CCCCC1)c1ccc(C#Cc2ccccc2F)cc1` [Example 62, 4-((2-fluorophenyl)ethynyl)-N-((1-(3-hydroxypropyl)cyclohexyl)methyl)benzamide], the IC50 lay in the range of 100 to 500 nM in assay [1] and 1000 to 2000 nM in assay [2].

As to `CC1(C)CC(CNC(=O)c2ccc(C#Cc3ccccc3F)cc2)CCO1` (centres unmarked) [Example 67, N-((2,2-dimethyltetrahydro-2H-pyran-4-yl)methyl)-4-((2-fluorophenyl)ethynyl)benzamide], the concentration for half-maximal inhibition (IC50) was 100 to 500 nM in assay [1] and 500 to 1000 nM in assay [2].

Consider `[2H]C([2H])(NC(=O)c1ccc(C#Cc2ccccc2F)cc1)C1CCOCC1` [Example 68, 4-((2-fluorophenyl)ethynyl)-N-((tetrahydro-2H-pyran-4-yl)methyl-d2)benzamide], for which the concentration for half-maximal inhibition (IC50) in assay [1] lay within 100 to 500 nM; in assay [2] it was 500 to 1000 nM.

In the case of `CC1(C)CC(CNC(=O)c2ccc(C#Cc3ccccc3F)cc2)CO1` (centres unmarked) [Example 70, N-((5,5-dimethyltetrahydrofuran-3-yl)methyl)-4-((2-fluorophenyl)ethynyl)benzamide], the results for the IC50 in assay [1] and in assay [2] were 100 to 500 nM and 500 to 1000 nM, respectively.

In the case of `O=C(NCC1CCCO1)c1ccc(C#Cc2ccccc2F)cc1` (centres unmarked) [Example 71, 4-((2-fluorophenyl)ethynyl)-N-((tetrahydrofuran-2-yl)methyl)benzamide], the IC50 is less than 100 nM in assay [1] and 500 to 1000 nM in assay [2].

As to `O=C(NCC1(F)CCCCC1)c1ccc(C#Cc2ccc(F)cc2F)cc1` [Example 73, 4-((2,4-difluorophenyl)ethynyl)-N-((1-fluorocyclohexyl)methyl)benzamide], the results for the IC50 in assay [1] and in assay [2] were less than 100 nM and 1000 to 2000 nM, respectively.

Regarding `COC(=O)CC1(CNC(=O)c2ccc(C#Cc3ccccc3F)cc2)CCCCC1` [Example 74, methyl 2-(1-((4-((2-fluorophenyl)ethynyl)benzamido)methyl)cyclohexyl)acetate], the half-inhibitory concentration (IC50) lay in the range of 100 to 500 nM in assay [1] and 500 to 1000 nM in assay [2].

In the case of `COC(=O)CC1(CNC(=O)c2ccc(C#Cc3ccccc3F)cc2)CCOCC1` [Example 75, methyl 2-(4-((4-((2-fluorophenyl)ethynyl)benzamido)methyl)tetrahydro-2H-pyran-4-yl)acetate], the results for the half-inhibitory concentration (IC50) in assay [1] and in assay [2] were 100 to 500 nM and 500 to 1000 nM, respectively.

Take `O=C(O)CC1(CNC(=O)c2ccc(C#Cc3ccccc3F)cc2)CCCCC1` [Example 76, 2-(1-((4-((2-fluorophenyl)ethynyl)benzamido)methyl)cyclohexyl)acetic acid]: the 50% inhibitory concentration (IC50) in assay [1] was 500 to 1000 nM; in assay [2] it was 100 to 500 nM.

Take `NC(=O)CC1(CNC(=O)c2ccc(C#Cc3ccccc3F)cc2)CCCCC1` [Example 77, N-((1-(2-amino-2-oxoethyl)cyclohexyl)methyl)-4-((2-fluorophenyl)ethynyl)benzamide]: the IC50 is less than 100 nM in assay [1] and 1000 to 2000 nM in assay [2].

Regarding `NC(=O)CC1(CNC(=O)c2ccc(C#Cc3ccccc3F)cc2)CCOCC1` [Example 78, N-((4-(2-amino-2-oxoethyl)tetrahydro-2H-pyran-4-yl)methyl)-4-((2-fluorophenyl)ethynyl)benzamide], the IC50 is 100 to 500 nM in assay [1] and 1000 to 2000 nM in assay [2].

As to `O=C(CC1(CNC(=O)c2ccc(C#Cc3ccccc3F)cc2)CCCCC1)NO` [Example 79, 4-((2-fluorophenyl)ethynyl)-N-((1-(2-(hydroxyamino)-2-oxoethyl)cyclohexyl)methyl)benzamide], the half-maximal inhibitory concentration (IC50) in assay [1] was 100 to 500 nM; in assay [2] it was 1000 to 2000 nM.

As to `CNC(=O)CC1(CNC(=O)c2ccc(C#Cc3ccccc3F)cc2)CCCCC1` [Example 80, 4-((2-fluorophenyl)ethynyl)-N-((1-(2-(methylamino)-2-oxoethyl)cyclohexyl)methyl)benzamide], the IC50 in assay [1] and in assay [2] was 100 to 500 nM each time.

Regarding `CN(C)C(=O)CC1(CNC(=O)c2ccc(C#Cc3ccccc3F)cc2)CCCCC1` [Example 81, N-((1-(2-(dimethylamino)-2-oxoethyl)cyclohexyl)methyl)-4-((2-fluorophenyl)ethynyl)benzamide], the values for the IC50 in assay [1] and in assay [2] were 500 to 1000 nM and 100 to 500 nM, respectively.

For `CC1(CNC(=O)c2ccc(C#Cc3ccccc3F)c(F)c2)COC1` [Example 84, 3-fluoro-4-((2-fluorophenyl)ethynyl)-N-((3-methyloxetan-3-yl)methyl)benzamide], the IC50 in assay [1] and in assay [2] was 1000 to 2000 nM throughout.

In the case of `O=C(NC[C@H]1C[C@@H](O)C1)c1ccc(C#Cc2ccccc2F)cc1` [Example 85, 4-((2-fluorophenyl)ethynyl)-N-(((1s,3s)-3-hydroxycyclobutyl)methyl)benzamide], the results for the IC50 in assay [1] and in assay [2] were 100 to 500 nM and 500 to 1000 nM, respectively.

For the compound `O=C(NC[C@H]1C[C@H](O)C1)c1ccc(C#Cc2ccccc2F)cc1` [Example 86, 4-((2-fluorophenyl)ethynyl)-N-(((1r,3r)-3-hydroxycyclobutyl)methyl)benzamide], the IC50 in assay [1] was 100 to 500 nM; in assay [2], 1000 to 2000 nM.

On to `O=C(NCC1CC(F)(F)C1)c1ccc(C#Cc2ccccc2)cc1` [Example 90, N-((3,3-difluorocyclobutyl)methyl)-4-(phenylethynyl)benzamide], for which the IC50 was less than 100 nM in assay [1] and 100 to 500 nM in assay [2].

On to `O=C(NC[C@@H]1CCCOC1)c1ccc(C#Cc2ccccc2F)cc1` [Example 91, (S)-4-((2-fluorophenyl)ethynyl)-N-((tetrahydro-2H-pyran-3-yl)methyl)benzamide], for which the IC50 in assay [1] is less than 100 nM; in assay [2], 1000 to 2000 nM.

For the compound `O=C(NC[C@@H]1CCOC1)c1ccc(C#Cc2ccccc2F)cc1` [Example 93, (S)-4-((2-fluorophenyl)ethynyl)-N-((tetrahydrofuran-3-yl)methyl)benzamide], the concentration for half-maximal inhibition (IC50) in assay [1] and in assay [2] was 100 to 500 nM each time.
